Results as given in patent US5476944A, “Derivatives of cyclic phenolic thioethers” (G. D. Searle & Co., priority 1994, dated 1995).
Where two headings read alike, the source gives them in different places.

Legend:
[1] = molecular target: T1, Sheep Seminal Vesicle Microsome Cyclooxygenase (Ovis aries, UniProt P05979); test: Inhibition of Sheep Seminal Vesicle Microsome Cyclooxygenase; type: biochemical; details: for IC50: sheep seminal vesicle microsomes
T1 construct: Lyophilized ovine microsome (approximately 1 mg) suspended in 2.9 ml Tris-HCl buffer; from tissue; host or cells: sheep seminal vesicle microsomes, lyophilized
T1 sequence (P05979 25-600): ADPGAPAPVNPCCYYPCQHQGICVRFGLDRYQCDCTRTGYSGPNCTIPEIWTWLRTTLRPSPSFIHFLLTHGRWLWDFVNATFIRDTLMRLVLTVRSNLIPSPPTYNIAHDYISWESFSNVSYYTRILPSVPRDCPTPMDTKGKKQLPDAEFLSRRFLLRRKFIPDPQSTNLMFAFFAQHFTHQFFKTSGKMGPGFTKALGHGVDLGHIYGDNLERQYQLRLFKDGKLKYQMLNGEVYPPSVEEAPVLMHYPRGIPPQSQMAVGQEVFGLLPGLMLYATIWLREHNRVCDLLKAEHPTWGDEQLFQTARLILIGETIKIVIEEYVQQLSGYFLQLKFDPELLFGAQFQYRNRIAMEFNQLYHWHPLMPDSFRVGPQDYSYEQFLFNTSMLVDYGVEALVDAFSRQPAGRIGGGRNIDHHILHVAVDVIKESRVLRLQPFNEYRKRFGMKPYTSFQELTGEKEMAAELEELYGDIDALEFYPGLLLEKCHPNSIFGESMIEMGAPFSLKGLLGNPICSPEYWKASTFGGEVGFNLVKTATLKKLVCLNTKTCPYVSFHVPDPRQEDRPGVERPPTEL
Description: The compounds of the present invention evaluated with respect to cyclooxygenase inhibition according to the following assay procedure. Inhibition of Sheep Seminal Vesicle Microsome Cyclooxygenase: This assay was based on oxygen consumption during conversion of arachidonic acid to prostaglandin G2 catalyzed by cyclooxygenase BIOCHEM. 11:3276-3285 (1972), which is incorporated herein by reference. Lyophilized ovine microsome (approximately 1 mg) suspended in 2.9 ml Tris-HCl buffer, pH 8.2, containing 0.7 mM phenol were used as source of arachidonate cyclooxygenase. The inhibitor, 50 μl in DMSO, was added and the mixture was preincubated for 5 minutes at 37° C. Fifty μl of arachidonic acid (final concentration 50 μM) was added to start the reaction. The slopes of the initial rates of oxygen uptake, in the presence and absence of inhibitor, were compared to determine reaction inhibition. Percent inhibition was computed using the following formula: [formula]

[2] = test system: Rats; test: Chronic adjuvant-induced polyarthritis test; type: in vivo; details: intragastric; for minimal effective dose: Rattus norvegicus, po, 456 h, 18 days, rats, read-out: Minimum dose to result in a statistically significant reduction [p < 0.05] in the paw volume/body weight ratio; for % Inhibition in the paw volume to body weight ratio: at minimum significant dose 25 mg/kg/day, day 19, rats
Description: Chronic adjuvant-induced polyarthritis test:
Rats [50-70 gm] were weighed, ear tagged and intradermally inoculated in the tail base with 2.0 mg of heat killed M. butyricum suspended in 0.05 ml of white paraffin oil [n=12-15 per group]. Compounds were intragastrically administered beginning on the day of inoculation and continued for 18 days. Each daily dose was split [dose volume=0.5 ml/100 gm] and given approximately 7 hours apart. Animals were weighed every 3 days, and the dose was adjusted accordingly. On day 19, animals were sacrificed by inhalation of CO2, weighed, and total hind paw volume was measured by the displacement of water with a plethysmometer (Ugo Basile, Varese, Italy). A group of age-matched naive rats were included. These rats, designated "normal," were not inoculated with adjuvant or gavaged with vehicle.
For individual experiments, the paw volume/body weight ratios for each dose were compared to the ratio for the vehicle treated control group by a two-tailed Dunnett's t-test (p ≤0.05). The Dunnett's test was preceded by a Bartlett's test of variance homogeneity across the dose groups. If the Bartlett's test was significant, an appropriate variance stabilizing transformation was applied to the data, and the Dunnett's test was performed on the transformed data.

[3] = molecular target: T2, 5-lipoxygenase (Rattus norvegicus, UniProt P12527); test: Inhibition of 5-lipoxygenase, in vitro (5-HETE formation, RBL-1 homogenate supernatant); type: biochemical
T2 construct: The 100,000×g supernatant fraction of Rat Basophilic Leukemia Cell Homogenate (RBL-1); endogenous in cells; host or cells: RBL-1 (rat basophilic leukemia) cells, 100,000xg supernatant of homogenate
T2 sequence (P12527 1-673): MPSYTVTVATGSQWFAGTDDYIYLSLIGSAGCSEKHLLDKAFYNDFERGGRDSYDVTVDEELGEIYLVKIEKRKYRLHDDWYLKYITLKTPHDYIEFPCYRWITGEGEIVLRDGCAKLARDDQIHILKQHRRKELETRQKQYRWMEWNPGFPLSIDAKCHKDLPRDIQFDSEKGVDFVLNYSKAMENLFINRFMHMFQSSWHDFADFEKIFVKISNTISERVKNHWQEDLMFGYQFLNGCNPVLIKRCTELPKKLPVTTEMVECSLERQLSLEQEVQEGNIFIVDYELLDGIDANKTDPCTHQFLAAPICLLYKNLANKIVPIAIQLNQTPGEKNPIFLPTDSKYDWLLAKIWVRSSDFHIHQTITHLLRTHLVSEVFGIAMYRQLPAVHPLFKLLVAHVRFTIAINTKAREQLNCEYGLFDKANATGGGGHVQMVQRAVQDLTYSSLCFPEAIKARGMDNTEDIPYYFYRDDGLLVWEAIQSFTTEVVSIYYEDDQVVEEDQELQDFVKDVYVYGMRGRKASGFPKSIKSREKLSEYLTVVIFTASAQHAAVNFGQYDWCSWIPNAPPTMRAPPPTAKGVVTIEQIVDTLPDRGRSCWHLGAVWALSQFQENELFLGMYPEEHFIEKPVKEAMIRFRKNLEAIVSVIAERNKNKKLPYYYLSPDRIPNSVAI
Description: The compounds of the invention are evaluated with respect to 5-lipoxygenaseinhibition according to the following assay procedure.
Inhibition of 5-lipoxygenase, in vitro:
The 100,000×g supernatant fraction of Rat Basophilic Leukemia Cell Homogenate (RBL-1) serves as a 5-lipoxygenase enzyme source. The enzyme is incubated with [1-^4 C)-arachidonic acid and Ca++ in the presence and absence of test compound. The product of 5-lipoxygenase, 5-hydroxyeicosatetraenoic acid (5-HETE), is separated by thin-layer chromatography and measured by radioactivity. A compound inhibiting 5-HETE synthesis by 30% or more is considered active at that concentration.
For comparison the compound of Formula XX, a known 5-lipoxygenase inhibitor described in U.S. Pat. No. 4,755,524 was used: [drawing 29] (±)[2S*-[[3,5-bis(1,1-dimethylethyl)-4-hydroxyphenyl]thio]-1R*-methylpro poxy]acetic acid.

[4] = test system: Human neutrophil superoxide generation; test: Human neutrophil superoxide generation, FMLP-induced; type: cell-based
Description: The compounds of the present invention are evaluated with respect to superoxide modulating activity according to the following assay procedure:
Human neutrophil superoxide generation:
Superoxide generation by formyl-methionyl-leucyl-phenylalanine (FMLP)-stimulated neutrophils was quantitated by the reduction of cytochrome C (Badwey, J. A., Curnutte, J. T. and Karnovsky, M. L., cis-Polyunsaturated fatty acids induce high levels of superoxide production by human neutrophils. J. BIOL. CHEM. 256: 12640-12643, 1981, which is incorporated herein by reference.) To 5 million neutrophils in 2.85 ml of Krebs-Ringer phosphate buffer, pH 7.2, 50 ul of inhibitor (in 10% DMSO/buffer), and 50 ul ferricytochrome C (5 mM, stock) were added and preincubated for 3 minutes at 37° C. Absorption measurements at 550 nm were recorded at start of preincubation. Fifty ul FMLP (6 uM, stock) was added to initiate reaction. A plateau was reached within 3 minutes and this reading minus the initial reading (before addition of FMLP) was used to calculate nanomoles of superoxide generated based on a molar extinction coefficient of 2.1×10^4 cm^-1 mole^-1.
Isolation of human neutrophils:
Human neutrophils were isolated from freshly drawn blood of healthy donors. […] The red cell lysing procedure was repeated, the cells suspended in appropriate buffer (depending on assay) and counted.

[5] = test system: COX II enzyme; details: metabolite of nabumetone; cited from earlier work
[6] = insertion of the thio group; cited from earlier work
[7] = relative to histamine; cited from earlier work
[8] = in vivo; cited from earlier work

Question: With `CC(C)(C)c1cc(S[C@@H]2CCCC[C@H]2SCC(=O)O)cc(C(C)(C)C)c1` (relative stereo) [Example 5, trans-[[2-[[3,5-bis(1,1-dimethylethyl)phenyl]thio]cyclohexyl]thio]acetic acid] as the compound, how does the IC50 [1] read?
Answer: The IC50 was 3.1 µM.

Question: And the minimal effective dose [2]?
Answer: The minimal effective dose was 25 mg/kg/day.

Question: What about the “% Inhibition in the paw volume to body weight ratio” value [2] of the same compound?
Answer: Its value is 64.4%.

Question: With `O=C(O)CS[C@@H]1CCCC[C@H]1Sc1ccccc1` (relative stereo) [Example 7, trans-[[2-(phenylthio)cyclohexyl]thio]acetic acid] as the compound, how does the “5-lipoxygenase inhibition (in words)” value [3] read?
Answer: The value was “did not inhibit either 5-lipoxygenase or cyclooxygenase”.

Question: What about the “superoxide generation (in words)” value [4] of the same compound?
Answer: The value was “did inhibit superoxide generation”.

Question: And the “cyclooxygenase inhibition (in words)” value [1]?
Answer: Its value is “did not inhibit either 5-lipoxygenase or cyclooxygenase”.

Question: What does the source list for `CC(C)(C)c1cc(S[C@@H]2CCCC[C@H]2OCC(=O)O)cc(C(C)(C)C)c1` (relative stereo) [Example 17, trans-[[2-[[3,5-bis(1,1-dimethylethyl)phenyl]thio]cyclohexyl]oxy]acetic acid]?
Answer: IC50 [1]: 3.8 µM; minimal effective dose [2]: 25 mg/kg/day; % Inhibition in the paw volume to body weight ratio [2]: 50.8%

Question: For `C[C@H](Sc1cc(C(C)(C)C)c(O)c(C(C)(C)C)c1)[C@@H](C)OCC(=O)O` (relative stereo) [Formula XX, (±)[2S*-[[3,5-bis(1,1-dimethylethyl)-4-hydroxyphenyl]thio]-1R*-methylpropoxy]acetic acid, reference compound], which “5-lipoxygenase inhibition (in words)” value [3] is on record?
Answer: Its value is “inhibited both superoxide generation and 5-lipoxygenase”.

Question: And the “superoxide generation (in words)” value [4]?
Answer: Its value is “inhibited both superoxide generation and 5-lipoxygenase”.

Question: Which “selective inhibition of COX II (in words)” value [5] does the source give for `COc1ccc2cc(CC(=O)O)ccc2c1` [6-methoxy-2-napthylacetic acid] here?
Answer: Its value is “selectively inhibit the COX II enzyme”.

Question: For `CC(C)(C)c1cc(SC2CCOC2=O)cc(C(C)(C)C)c1O` (stereo not shown) [Compound 3], which “anti-inflammatory activity (in words)” value [6] is on record?
Answer: The value was “loss of anti-inflammatory activity”.

Question: Which “potency versus histamine in causing long lasting bronchoconstricting effects” value [7] does the source give for `CCCCC/C=C\C\C=C/C=C/C=C/[C@@H](SC[C@H](NC(=O)CC[C@H](N)C(=O)O)C(=O)NCC(=O)O)[C@@H](O)CCCC(=O)O` [LTC4] here?
Answer: Its value is “at least 100 times”.

Question: For `CS(=O)(=O)Nc1ccc([N+](=O)[O-])cc1OC1CCCCC1` [N-(2-cyclohexyloxy-4-nitrophenyl)methanesulfonamide], which “anti-inflammatory activity (in words)” value [8] is on record?
Answer: Its value is “anti-inflammatory”.

Question: And the “gastric side effects (in words)” value [8]?
Answer: The value was “lacks gastric side effects”.
